Article PMC5291822 (Bioorganic & medicinal chemistry, 2016)

Columns and labels:
[1] = tested on: magnesium-dependent phosphatidate phosphohydrolase-1; conditions: off-target; cited from earlier work
human GIVA cPLA2 [2] = molecular target: T1, human GIVA cPLA2 (Homo sapiens, UniProt P47712); conditions: 0.091 mol fraction; reference inhibitor; cited from earlier work
T1 sequence (P47712 1-749): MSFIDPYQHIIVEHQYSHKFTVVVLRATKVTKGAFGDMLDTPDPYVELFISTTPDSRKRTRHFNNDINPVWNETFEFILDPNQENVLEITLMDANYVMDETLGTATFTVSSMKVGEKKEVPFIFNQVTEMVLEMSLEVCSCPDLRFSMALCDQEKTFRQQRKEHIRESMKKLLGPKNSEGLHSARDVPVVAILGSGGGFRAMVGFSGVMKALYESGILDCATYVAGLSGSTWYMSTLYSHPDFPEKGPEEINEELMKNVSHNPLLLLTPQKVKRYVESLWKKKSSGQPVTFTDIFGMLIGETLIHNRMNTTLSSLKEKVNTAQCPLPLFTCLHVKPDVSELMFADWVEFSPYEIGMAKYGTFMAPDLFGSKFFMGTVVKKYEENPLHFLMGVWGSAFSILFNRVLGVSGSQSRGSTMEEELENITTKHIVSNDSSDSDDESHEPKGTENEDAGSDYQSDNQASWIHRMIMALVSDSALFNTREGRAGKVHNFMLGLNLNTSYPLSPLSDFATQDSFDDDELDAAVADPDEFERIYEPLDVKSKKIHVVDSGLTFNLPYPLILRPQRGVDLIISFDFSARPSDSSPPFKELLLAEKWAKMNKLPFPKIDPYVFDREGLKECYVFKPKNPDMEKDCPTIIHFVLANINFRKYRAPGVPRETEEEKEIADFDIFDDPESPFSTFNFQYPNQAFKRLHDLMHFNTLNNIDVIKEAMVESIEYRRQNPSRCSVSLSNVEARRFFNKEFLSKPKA

[3] = tested on: experimental autoimmune encephalomyelitis; conditions: cited from earlier work
human GV sPLA2 = molecular target: T2, human GV sPLA2 (Homo sapiens, UniProt P39877); assay: mixed micelle modified Dole assay, GV sPLA2; format: biochemical
T2 sequence (P39877 21-138): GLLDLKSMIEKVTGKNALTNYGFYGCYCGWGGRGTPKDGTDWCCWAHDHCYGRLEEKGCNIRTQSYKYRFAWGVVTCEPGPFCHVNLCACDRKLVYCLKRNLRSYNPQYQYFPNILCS

human GIVA cPLA2 [4] = molecular target: T1, human GIVA cPLA2; assay: mixed micelle modified Dole assay, GIVA cPLA2; format: biochemical

O=C1O/C(=C/Br)CCC1c1cccc2ccccc12 (centres unmarked) [BEL, Bromoenol lactone]
inhibition of magnesium-dependent phosphatidate phosphohydrolase-1 (in words) [1]: able to inhibit

O=C(CCCCc1ccccc1)C(F)(F)C(F)(F)F [FKGK11]
% Inhbition GIVA cPLA2 (human GIVA cPLA2 [2]): N.D.[17] (N.D. signifies compounds with less than 25% inhibition (or no detectable inhibition).) | clinical severity and progression of experimental autoimmune encephalomyelitis [3]: strong reduction in the clinical severity and progression

CCCC[C@H](NC(=O)C(=O)CCCCc1ccc(OC)cc1)C(=O)NCC(=O)OC(C)(C)C [compound 12c, (S)-tert-Butyl 2-(2-(6-(4-methoxyphenyl)-2-oxohexanamido)hexanamido)acetate]
inhibition of GV sPLA2 (in words) (human GV sPLA2): weak inhibition | inhibition of GIVA cPLA2 (in words) (human GIVA cPLA2 [4]): weak inhibition
